For this test, the system named is CEM cells HIV-1 protection, formazan growth assay. Put plainly: NCI AIDS Antiviral Assay. The following applies: for IC50: measured here: growth of uninfected CEM cells. Summed up:
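Screen of anti-HIV-1 activity in human CEM cells using a formazan-based growth measurement at five drug concentrations. Hits with 50% or greater protection were repeated, and confirmation required reproducible complete protection.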

Activity calls are given as the source filed them.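 Rule for the calls: active = compounds giving half or more protection of infected cells from virus-caused growth loss, again on retest; inactive = the rest.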

Consider `N#C/C(=C\c1ccccc1)C(=O)c1ccccc1`, for which the EC50 was greater than 95.5 µM and the 50% inhibitory concentration (IC50) was greater than 95.5 µM. Regarding `COc1cc2cnc3c4cc(OCc5ccccc5)ccc4ccc3c2cc1OC`, the EC50 was greater than 6.61 µM and the IC50 is greater than 6.61 µM.

Regarding `CCCCCCCCCCCCCCCCNc1ccn(C2CC(OP(=O)(O)OCC3OC(n4cc(C)c(=O)[nH]c4=O)CC3N=[N+]=[N-])C(CO)O2)c(=O)n1` (stereo not drawn), the EC50 is 0.182 µM and the IC50 was 77.6 µM. As for `COc1ccccc1N=C1SCC(=O)N1Cc1ccco1`, the EC50 was greater than 135 µM and the IC50 was 89.1 µM. `CSc1nc(C)c(CCCl)c(Cl)n1`: the result was inactive. As to `CCCCOCCOC(=O)C1C(C=C(C)C)C1(C)C` (stereo not drawn), the EC50 was greater than 200 µM and the half-inhibitory concentration (IC50) was greater than 200 µM. Turning to `O=C(NC1CCCCCC1)C1C(=O)N(C2CCCCCC2)C(=O)/C1=N\O` (stereo not drawn), the result was inactive.

Regarding `NC(=O)C(=CNC(=S)Nc1ccc(S(N)(=O)=O)cc1)C(N)=O`, the EC50 was greater than 200 µM and the IC50 is greater than 200 µM. `O=C1C(=O)N(c2cccc(C(F)(F)F)c2)C(=O)C(=O)C1c1nc2ccccc2s1`: the EC50 was greater than 44.7 µM and the IC50 was greater than 44.7 µM.

Regarding `NCCNCCNCc1c2ccccc2c(CNCCNCCN)c2ccccc12`, the EC50 was 5.89 µM and the IC50 was 39.8 µM. For `C=CC[C@@H](N)C(=O)N(C)[C@@H](C)[C@@H](O)c1ccccc1` the same measures were greater than 200 µM and greater than 200 µM. As for `O=c1cc(N=Nc2ccc(Cl)c(Cl)c2)[nH]c(=O)[nH]1`, the EC50 is greater than 2 µM and the IC50 stood at 1.55 µM. As for `NC(=O)C(=CNc1nc(-c2ccc(Cl)c(Cl)c2)cs1)C(N)=O`, the EC50 is greater than 200 µM and the IC50 was found to be 102 µM. Regarding `CC1(C)C2CC(=O)C1(C)C(OCc1ccccc1)C2Br` (stereo not drawn), the EC50 was greater than 200 µM and the IC50 was greater than 100 µM. Turning to `O=c1cc(N2CCNCC2)nc2ccccn12`, the EC50 is greater than 200 µM and the IC50 was greater than 200 µM. As to `O=S(CCCl)c1c2ccccc2nc2ccccc12` (stereo not drawn), the EC50 is greater than 200 µM and the IC50 amounted to 30.9 µM. The matching figures for `CCOC(=O)c1cc2cc(C)cc(C(=O)c3ccc([N+](=O)[O-])cc3)c2[nH]1`: greater than 200 µM and greater than 200 µM.

As for `CN(C)CCCNC(=O)CCNC(=O)c1cc(NC(=O)c2cc(NC(=O)c3cc(NC(=O)c4nccn4C)cn3C)cn2C)cn1C`, the EC50 is greater than 200 µM and the IC50 turned out to be 17 µM. For the molecule `CC(=O)N1N=C(c2ccc3ccccc3c2O)CC1c1ccc(Cl)cc1Cl` (stereo not drawn), the EC50 is greater than 200 µM and the IC50 is 22.9 µM. As for `O=Nc1c(-c2ccccc2)nnc(-c2ccccc2)c1N=O`, the EC50 is greater than 9.33 µM and the IC50 is greater than 9.33 µM. `Oc1ccc(I)c2cccnc12`: the EC50 is greater than 182 µM and the 50% inhibitory concentration (IC50) worked out at 2.19 µM. On to `C#CC1(O)CCC2C3CCc4cc(Oc5nc(F)nc(-c6c7ccccc7c7n6CCS7)n5)ccc4C3CC[C@@]21C` (stereo partly drawn), for which the EC50 was greater than 200 µM and the concentration for half-maximal inhibition (IC50) was 11.2 µM.

Consider `CCOC(=O)/C(O)=C/c1cc(=O)n(C)c2ccccc12`, for which the EC50 is greater than 200 µM and the IC50 was greater than 200 µM. Take `Cn1cc(NC(=O)Nc2cc(C(=O)Nc3cc(C(=O)Nc4ccc5c(S(=O)(=O)O)cccc5c4S(=O)(=O)O)n(C)c3)n(C)c2)cc1C(=O)Nc1cc(C(=O)Nc2ccc3c(S(=O)(=O)O)cccc3c2S(=O)(=O)O)n(C)c1`: the EC50 is 22.9 µM and the concentration for half-maximal inhibition (IC50) was found to be 148 µM. For `CC(=O)c1sc(Nc2ccc(S(=O)(=O)Nc3nc(C)cc(C)n3)cc2)nc1C` the same measures were greater than 200 µM and 112 µM. In the case of `COc1ccc(-c2c(C#N)cnc(C)c2C)c(O)c1OC`, the EC50 was greater than 631 µM and the IC50 stood at 115 µM. In the case of `Nc1ncc(C[P+](c2ccccc2)(c2ccccc2)c2ccccc2)c(N)n1`, the EC50 was greater than 200 µM and the half-maximal inhibitory concentration (IC50) was greater than 200 µM.

For `CCC(C)C1C(=O)ON=C1N` (stereo not drawn), the EC50 is greater than 200 µM and the half-inhibitory concentration (IC50) was greater than 200 µM. Regarding `COc1ccc(/C=N\N2CC(=O)N3C4C=CC(CC4)N3C2=O)cc1` (stereo not drawn), the EC50 is greater than 200 µM and the IC50 is greater than 200 µM. As for `N#CCCN(CCN(CCC#N)C(=O)Nc1ccccc1)C(=O)Nc1ccccc1`, the EC50 was greater than 200 µM and the IC50 is greater than 200 µM.

On to `NNc1nnc(CCCCCCCCc2nnc(NN)n2N)n1N`, for which the EC50 is greater than 200 µM and the IC50 came to 37.2 µM. `COc1ccc(NC2=CC(C)(C(=O)O)OC2=O)cc1` (stereo not drawn): the EC50 is greater than 200 µM and the IC50 is greater than 200 µM.

Turning to `Nc1c(N=Nc2ccc(-c3ccc(N=Nc4c(S(=O)(=O)O)cc5cc(S(=O)(=O)O)c(N=Nc6ccccc6)c(O)c5c4N)cc3)cc2)ccc2c(S(=O)(=O)O)cccc12`, the outcome was inactive.

For the molecule `COc1ccc(N2C(=O)C3c4[nH]c5c(C)cccc5c4C4CCC(C(C)C)CC4C3C2=O)cc1` (stereo not drawn), the EC50 was greater than 200 µM and the 50% inhibitory concentration (IC50) amounted to 23.4 µM. Regarding `CN(C)CCNc1cccc2oc3ccc(O)cc3c(=O)c12`, the EC50 was greater than 437 µM and the IC50 turned out to be 5.75 µM.

For the molecule `O=C(Nc1ccc([N+](=O)[O-])cc1)N(c1ccccc1)c1cc(N2CCOCC2)ccn1`, the EC50 was greater than 200 µM and the 50% inhibitory concentration (IC50) was determined as 39.8 µM.

Take `O=c1c(C(c2ccc(Cl)cc2)c2c(O)c3ccccc3n(-c3ccccc3)c2=O)c(O)c2ccccc2n1-c1ccccc1`: the EC50 was greater than 8.71 µM and the IC50 is greater than 8.71 µM.

With `C=C(C)C12CC3/C(=N\O)C(C1)C(C)C(/C3=N\O)[C@@]2(C)O` (stereo partly drawn), the EC50 was greater than 200 µM and the half-maximal inhibitory concentration (IC50) was greater than 200 µM. For the molecule `Cc1cc(Cc2cc(C)c(O)c(C(=O)O)c2)cc(C(=O)O)c1O`, the EC50 was 380 µM and the 50% inhibitory concentration (IC50) was 417 µM. Regarding `O=c1cc(CNC2CCCC2)[nH]c(=O)[nH]1`, the result was inactive. Take `CCN(CC)C1=CC(=O)C(=O)c2cccnc21`: the outcome was inactive. In the case of `C[N+]1(CCCl)CCc2ccc([N+](=O)[O-])cc2C1` (stereo not drawn), the EC50 is greater than 200 µM and the IC50 is greater than 200 µM.

For `N=c1oc2ccccc2cc1-c1nc2ccccc2c(=O)[nH]1`, the result was inactive. Turning to `CN1c2ccccc2C(=O)NC12CCN(CCCC(=O)c1ccc(F)cc1)CC2`, the EC50 was greater than 200 µM and the IC50 was greater than 100 µM.

Take `CCCCCC=C(c1cc(Br)cc(C(=O)OC)c1OC)c1cc(Br)cc(C(=O)OC)c1OC`: the EC50 was 42.7 µM and the IC50 turned out to be 43.7 µM.

Consider `O=C1NC(=O)C(Cc2cccc(Cl)c2)C(=O)N1`, for which the EC50 is greater than 200 µM and the concentration for half-maximal inhibition (IC50) was greater than 200 µM. Consider `OCC(O)C(OC1OC(CO)C(O)C(O)C1O)c1nn(-c2ccc(F)cc2)c2nc3cc(Cl)c(Cl)cc3cc12` (stereo not drawn), for which the outcome was inactive. Regarding `O=C1C(CN2CCOCC2)CCCC1CN1CCOCC1` (stereo not drawn), the EC50 was greater than 4270 µM, the result was inactive and the IC50 came out at 1.35 µM. For the molecule `CC(Oc1ccc(OCC2CCCCC2)cc1)C(=O)OCC(=O)c1ccc(-c2ccccc2)cc1` (stereo not drawn), the EC50 was greater than 20.9 µM and the IC50 is greater than 20.9 µM.

Turning to `O=c1c(S(=O)(=O)Oc2ccccc2)coc2cc(F)ccc12`, the EC50 is greater than 200 µM and the IC50 was determined as 135 µM. For `COCc1c(C)oc2c(C)c3oc(=O)cc(C)c3cc12` the same measures were greater than 110 µM and greater than 110 µM. The matching figures for `Nc1nc(Cl)cc(OCC2(CO)CCCCC2)n1`: greater than 200 µM and 53.7 µM.

In general, EC50 refers to the concentration at which the effect is half-maximal. The term IC50 denotes the concentration that inhibits the measured activity by half. Higher therefore signals lower potency.

For the origin of these results see PubChem BioAssay AID179 (DTP/NCI, 2004).
